Measurements taken from ChEMBL document CHEMBL6103565, “Current strategies in design and synthesis of antifungals hybrid and chimeric diazine derivatives” (Bioorg Med Chem, 2025).
≈ marks a conversion by molar mass, not a printed value.

Key:
Assay type in all cases: functional
Candida tropicalis = assay: Antifungal activity against Candida tropicalis assessed as inhibition of fungal growth
Aspergillus niger [1] = assay: Antifungal activity against Aspergillus niger assessed as inhibition of fungal growth
Candida albicans [2] = assay: Antifungal activity against Candida albicans assessed as diameter of zone inhibition by disc diffusion method
Candida albicans [3] = assay: Antimicrobial activity against Candida albicans ATCC 64124 assessed as reduction in microbial growth by CLSI protocol based micro-broth dilution method
Saccharomyces cerevisiae [4] = assay: Antimicrobial activity against Saccharomyces cerevisiae assessed as zone of inhibition by disc diffusion method
Candida albicans [5] = assay: Antifungal activity against Candida albicans assessed as zone of inhibition by disc diffusion method
Aspergillus niger [6] = assay: Antifungal activity against Aspergillus niger assessed as zone of inhibition by disc diffusion method
Candida albicans [7] = assay: Antifungal activity against Candida albicans assessed as diameter of zone inhibition
Candida albicans [8] = assay: Antifungal activity against Candida albicans assessed as zone of inhibition by serial dilution and disc diffusion method
Saccharomyces cerevisiae [9] = assay: Antimicrobial activity against Saccharomyces cerevisiae assessed as zone of inhibition
Candida albicans [10] = assay: Antifungal activity against Candida albicans ATCC 10231
Pichia kudriavzevii = assay: Antifungal activity against Candida krusei ATCC 6258
Candida parapsilosis = assay: Antifungal activity against Candida parapsilosis ATCC 22019; settings: Lodderomyces parapsilosis
Nakaseomyces glabratus = assay: Antifungal activity against Candida glabrata ATCC 90030

Nc1nc(-c2ccncc2)cc(-c2cnc(Cl)cn2)n1
MIC (Candida tropicalis): 110 µM (≈ 31.4 µg/mL)
MIC (Aspergillus niger [1]): 110 µM (≈ 31.4 µg/mL)

CCOC(=O)c1cc(C(=O)c2ccc(C)cc2)n2ncc3ccccc3c12
inhibition zone (IZ) (Candida albicans [2]): 18 mm

Cc1nc(-c2ccc(C(C)(C)C)cc2)sc1-c1ccnc(N[C@H]2CCCCC2CN)n1 (some centres not stated)
MIC (Candida albicans [3]): 4 µg/mL

Nc1nc(-c2cnc(Cl)cn2)cc(-c2cccs2)n1
MIC (Candida tropicalis): 110 µM (≈ 32 µg/mL)
MIC (Aspergillus niger [1]): 110 µM (≈ 32 µg/mL)

O=[N+]([O-])c1cccc(/C=N/c2ncnc3[nH]ccc23)c1
inhibition zone (IZ) (Saccharomyces cerevisiae [4]): 13 mm
inhibition zone (IZ) (Candida albicans [5]): 15 mm

Cc1ccc(-c2cc(-c3cnc(Cl)cn3)nc(N)n2)cc1
MIC (Candida tropicalis): 97.3 µM (≈ 29 µg/mL)
MIC (Aspergillus niger [1]): 97.3 µM (≈ 29 µg/mL)

CC1=NN(c2ccccc2)C2N=C3SCCN3C(c3cccc([N+](=O)[O-])c3)C12 (configuration not stated)
inhibition zone (IZ) (Aspergillus niger [6]): 24 mm

COc1ccc(-c2cc(-c3cnc(Cl)cn3)nc(N)n2)c(OC)c1
MIC (Candida tropicalis): 101 µM (≈ 34.6 µg/mL)
MIC (Aspergillus niger [1]): 101 µM (≈ 34.6 µg/mL)

COc1ccc(C2c3c([nH]c(=O)[nH]c3=O)OC3N=CN(C(N)=O)C(=N)C32)cc1 (configuration not stated)
inhibition zone (IZ) (Aspergillus niger [6]): 10 mm

CCC(C)N1C=NC2Oc3[nH]c(=O)[nH]c(=O)c3C(c3ccc(OC)cc3)C2C1=N (configuration not stated)
inhibition zone (IZ) (Aspergillus niger [6]): 10 mm

Nc1nc(-c2ccccc2)cc(-c2cnc(Cl)cn2)n1
MIC (Candida tropicalis): 97.3 µM (≈ 27.6 µg/mL)
MIC (Aspergillus niger [1]): 97.3 µM (≈ 27.6 µg/mL)

Fc1ccc(/C=N/c2ncnc3[nH]ccc23)cc1
inhibition zone (IZ) (Saccharomyces cerevisiae [4]): 13 mm
inhibition zone (IZ) (Candida albicans [5]): 15 mm

CCOC(=O)c1cc(C(=O)c2ccc(C)cc2)n2nc(C)c3ccccc3c12
inhibition zone (IZ) (Candida albicans [2]): 18 mm

CC1=NN2C(C(=O)c3ccc(C)cc3)CC(C#N)C2c2ccccc21 (configuration not stated)
inhibition zone (IZ) (Candida albicans [2]): 18 mm

CCOC(=O)c1c(C(=O)OCC)c2cc(C)ncn2c1C(=O)c1ccc([N+](=O)[O-])cc1
inhibition zone (IZ) (Candida albicans [2]): 28 mm

C(=N\c1ncnc2[nH]ccc12)/c1ccccc1
inhibition zone (IZ) (Saccharomyces cerevisiae [4]): 13 mm
inhibition zone (IZ) (Candida albicans [5]): 15 mm

COc1ccc(-c2cc(-c3cnc(Cl)cn3)nc(N)n2)cc1
MIC (Candida tropicalis): 97.3 µM (≈ 30.5 µg/mL)
MIC (Aspergillus niger [1]): 97.3 µM (≈ 30.5 µg/mL)

O=c1c(C(O)c2ccccc2)c2sc(S)c(-c3ccccc3)n2c2nc(-c3ccccc3)c(-c3ccccc3)n12 (configuration not stated)
inhibition zone (IZ) (Aspergillus niger [6]): 15 mm

CC1=NN(c2ccccc2)C2N=C3SCCN3C(c3ccc(F)cc3)C12 (configuration not stated)
inhibition zone (IZ) (Aspergillus niger [6]): 24 mm

Fc1cccc(/C=N/c2ncnc3[nH]ccc23)c1
inhibition zone (IZ) (Saccharomyces cerevisiae [4]): 21 mm
inhibition zone (IZ) (Candida albicans [5]): 15 mm

CC1=NN(c2ccccc2)C2N=C3SCCN3C(c3ccccc3O)C12 (configuration not stated)
inhibition zone (IZ) (Aspergillus niger [6]): 24 mm

COC(=O)C1C(C(=O)OC)C(C(=O)c2ccc([N+](=O)[O-])cc2)N2N=C(c3ccc(Cl)cc3)C=CC12 (configuration not stated)
inhibition zone (IZ) (Candida albicans [7]): 24 mm

CC1=CC2C(C#N)CC(C(=O)c3ccc(Br)cc3)N2C=N1 (configuration not stated)
inhibition zone (IZ) (Candida albicans [2]): 22 mm

Nc1nc(-c2ccc([N+](=O)[O-])cc2)cc(-c2cnc(Cl)cn2)n1
MIC (Candida tropicalis): 97.3 µM (≈ 32 µg/mL)
MIC (Aspergillus niger [1]): 97.3 µM (≈ 32 µg/mL)

Cc1cccc(-c2nc3ccccc3nc2N2CCN(Cc3ccccc3)CC2)c1
inhibition zone (IZ) (Candida albicans [7]): 14 mm

COC(=O)c1c(C(=O)OC)c2c3ccccc3c(C)nn2c1C(=O)c1ccc(C)cc1
inhibition zone (IZ) (Candida albicans [2]): 18 mm

Brc1cc(Br)cc(/C=N/Nc2ncnc3[nH]ccc23)c1
inhibition zone (IZ) (Candida albicans [8]): 21 mm
inhibition zone (IZ) (Saccharomyces cerevisiae [9]): 21 mm

Cc1ccc(C(=O)C2C3C(=O)N(c4ccccc4)C(=O)C3C3c4ccccc4C=NN23)cc1 (configuration not stated)
inhibition zone (IZ) (Candida albicans [2]): 18 mm

CCOC(=O)C1CC(C(=O)c2ccccc2)N2N=C(c3ccc(Cl)cc3)C=CC12 (configuration not stated)
inhibition zone (IZ) (Candida albicans [7]): 24 mm

Nc1nc(Cc2ccco2)cc(-c2cnc(Cl)cn2)n1
MIC (Candida tropicalis): 110 µM (≈ 31.8 µg/mL)
MIC (Aspergillus niger [1]): 110 µM (≈ 31.8 µg/mL)

CCOC(=O)c1c(C(=O)OCC)c2cc(C)ncn2c1C(=O)c1ccc(OC)cc1
inhibition zone (IZ) (Candida albicans [2]): 24 mm

Cc1ccc(C2c3c([nH]c(=O)[nH]c3=O)OC(N)C2C#N)cc1 (configuration not stated)
inhibition zone (IZ) (Aspergillus niger [6]): 10 mm

COc1ccc(C2c3c([nH]c(=O)[nH]c3=O)OC3N=CN(c4cc(C)ccn4)C(=N)C32)cc1 (configuration not stated)
inhibition zone (IZ) (Aspergillus niger [6]): 10 mm

CCOC(=O)c1c(C(=O)OCC)c2cc(C)ncn2c1C(=O)c1ccc(Br)cc1
inhibition zone (IZ) (Candida albicans [2]): 22 mm

Nc1nc(-c2ccc(O)cc2)cc(-c2cnc(Cl)cn2)n1
MIC (Candida tropicalis): 97.3 µM (≈ 29.2 µg/mL)
MIC (Aspergillus niger [1]): 97.3 µM (≈ 29.2 µg/mL)

CN(C)c1ccc(-c2cc(-c3cnc(Cl)cn3)nc(N)n2)cc1
MIC (Candida tropicalis): 97.3 µM (≈ 31.8 µg/mL)
MIC (Aspergillus niger [1]): 97.3 µM (≈ 31.8 µg/mL)

COc1nc2ccccc2nc1N1CC(C(=O)O)=CC1=O
MIC50 (Candida albicans [10]): 0.78 µg/mL (≈ 2.73 µM)
MIC (Pichia kudriavzevii): 0.78 µg/mL (≈ 2.73 µM)
MIC (Candida parapsilosis): 0.78 µg/mL (≈ 2.73 µM)
MIC (Nakaseomyces glabratus): 0.78 µg/mL (≈ 2.73 µM)

Cc1ccc(C2c3c([nH]c(=O)[nH]c3=O)OC(NC(=O)/C=C/C(=O)O)C2C#N)cc1 (configuration not stated)
inhibition zone (IZ) (Aspergillus niger [6]): 10 mm

Cc1ccc(C(=O)C2CC(C#N)C3C=CC=NN23)cc1 (configuration not stated)
inhibition zone (IZ) (Candida albicans [2]): 18 mm

O=[N+]([O-])c1ccccc1/C=N/c1ncnc2[nH]ccc12
inhibition zone (IZ) (Saccharomyces cerevisiae [4]): 13 mm

CCOC(=O)c1cc(C(=O)c2ccc(C)cc2)n2ncccc12
inhibition zone (IZ) (Candida albicans [2]): 18 mm

COc1ccc(/C=N/Nc2ncnc3[nH]ccc23)cc1OC
inhibition zone (IZ) (Saccharomyces cerevisiae [9]): 24 mm

COc1cccc(/C=N/Nc2ncnc3[nH]ccc23)c1
inhibition zone (IZ) (Candida albicans [8]): 30 mm
inhibition zone (IZ) (Saccharomyces cerevisiae [9]): 24 mm
